Assay results taken from patent US8404669B2, “Kinase modulating compounds and uses thereof for treatment of cancer” (University of Florida Research Foundation, Inc., priority 2007, dated 2013).
Entries after “also recorded” stand apart in the source; their conditions may differ. Ends that are not written are not given here.

Legend:
[1] = system: subcutaneous xenograft models of breast and pancreatic cancers; assay: Subcutaneous xenograft models in nude mice, tumor growth; type: in vivo; settings: for anticancer effect on tumor growth in vivo: single agent, mouse xenograft
Description: (§1) Furthermore, these compounds sensitized the cancer cells to chemotherapy. […] See, FIGS. 3-14.

[2] = system: MCF7 control clone transfected with the vector pcDNA3; assay: Viability of control MCF7 clone transfected with vector pcDNA3; type: cell-based, human; settings: 1 mM
cancer cells [3] = assay: Cell cycle and apoptosis of cancer cells; type: cell-based, human
Procedure: Cell-based assays. Selected small molecules are evaluated in cell-based proliferation and apoptosis assays in model system of BT474 and MCF7 breast cancer cells and normal MCF10 cells. Other cells lines relevant for study are MiaPaCa-2 and PANC-1 (pancreatic cancer), A375 (melanoma), A549 (lung cancer), HT29 and COLO5 (colon cancer), SAOS (osteosarcoma), HCT116 p53(-/-) and HCT116 p53(+/+) (colon cancer) and […] (melanoma). The multiplex approach to analyze more than one parameter from the same culture well is used. The CellTiter-Blue Cell Viability Assay (Promega). CellTiter-Blue Reagent is added directly to each well (20μ reagent to each 100μ of medium in 96-well format), the plates are incubated at 37° C., and the fluorescent signal is measured (560Ex/590Em). This test can be combined with additional assays. The caspase activity is measured in the same wells by adding 120μ of the Apo-ONE Homogeneous […]-3/7 Assay Reagent (Promega). Cells are incubated for an additional hour at ambient temperature prior to recording fluorescence (485Ex/527Em);

[4] = system: cancer cells, including breast, colon, pancreatic, melanoma, lung, osteosarcoma; assay: Cancer cell viability and proliferation assays (CellTiter 96, CellTiter-Blue, MTT); type: cell-based, human
Procedure: Cell-based assays. Selected small molecules are evaluated in cell-based proliferation and apoptosis assays in model system of BT474 and MCF7 breast cancer cells and normal MCF10 cells. Other cells lines relevant for study are MiaPaCa-2 and PANC-1 (pancreatic cancer), A375 (melanoma), A549 (lung cancer), HT29 and COLO5 (colon cancer), SAOS (osteosarcoma), HCT116 p53(−/−) and HCT116 p53(+/+) (colon cancer) and C8186 (melanoma). The multiplex approach to analyze more than one parameter from the same culture well is used.
CellTiter 96 Aqueous One Solution Cell Proliferation Assay (Promega). The assay is performed by adding a small amount of the One Solution Reagent directly to culture wells, incubating for 1-4 hours and then recording absorbance at 490 nm with a spectrophotometric plate reader. The quantity of formazan product as measured by the amount of 490 nm absorbance is directly proportional to the number of living cells in culture;
The CellTiter-Blue Cell Viability Assay (Promega). CellTiter-Blue Reagent is added directly to each well (20μ reagent to each 100μ of medium in 96-well format), the plates are incubated at 37° C., and the fluorescent signal is measured (560Ex/590Em). This test can be combined with additional assays. The caspase activity is measured in the same wells by adding 120μ of the Apo-ONE Homogeneous Caspace-3/7 Assay Reagent (Promega). […]

VEGFR-3 = biological target: T1, VEGFR-3 (Homo sapiens, UniProt P35916); assay: VEGFR-3 dephosphorylation in cells; type: cell-based
T1 construct: expressed in transfected cells

FAK = biological target: T2, FAK (Homo sapiens, UniProt Q05397); assay: FAK dephosphorylation in cells; type: cell-based
T2 construct: specific displacement of FAK from the focal adhesions of the tumor cells; endogenous in cells; host or cells: tumor cells; BT474 named for the focal adhesion staining
Procedure: (§2) Measurement of FAK-specific effect. The readout of a FAK-specific effect of selected in silico small molecules is specific displacement of FAK from the focal adhesions of the tumor cells. Tumor cells are doubly stained with FAK and paxillin using dual color techniques and extensive biochemical analyses of effects on FAK signaling are performed, essentially as previously published. See, Garces, C. A., et al., Vascular Endothelial Growth Factor Receptor-3 and Focal Adhesion Kinase Bind and Suppress Apoptosis in Breast Cancer Cells. Cancer Res % R 10.1158/0008-5472.CAN-05-1661, 2006. 66(3): p. 1446-1454; Xu, L.-h., et al., The focal adhesion kinase suppresses transformation-associated, anchorage-Independent apoptosis in human breast cancer cells. J. Biol. Chem., 2000. 275: p. 30597-30604; Kurenova, E., et al., Focal Adhesion Kinase Suppresses Apoptosis by Binding to the Death Domain of Receptor-Interacting Protein. Mol. Cell. Biol., 2004. 24(10): p. 4361-4371.

[5] = biological target: T3, FAK and VEGFR-3 interaction (Homo sapiens, UniProt Q05397); assay: FAK and VEGFR-3 interaction and colocalization (immunofluorescence confocal microscopy, FRET); type: cell-based; settings: for colocalization of FAK and VEGFR-3 in the cells: confocal microscopy
T3 construct: endogenous in cells; BT474 for the FAK/VEGFR-3 staining
Procedure: as §1
(§3) FIG. 1.3. […] FAK and VEGFR-3 in BT474 cells were stained for FAK with a Texas Red-conjugated secondary antibody and VEGFR-3 with a Alexa Fluor 488-conjugated secondary antibody and then viewed with a Leica confocal microscope. After 24 hours of peptide-AV3 (black) treatment, staining was repeated, proliferation was measured by MTT assay, apoptosis was measured by Hoechst staining and TUNEL Assay. Control scrambled peptide-AV3S (white) was also used in all experiments. (FIG. 1.10, STEP 2A).

[6] = system: MCF7 cells overexpressing wt VEGFR3; assay: Viability of stable clone overexpressing wt VEGFR3 in MCF7 cells; type: cell-based, human; settings: 1 mM
cancer cells [7] = assay: Motility and invasiveness of cancer cells; type: cell-based
cancer cells [8] = assay: Dual treatment of cancer cells with C4 and chemotherapeutic drugs; type: cell-based, human
Description: FIG. 1.9. Dual treatment of cancer cells with C4 compound and chemotherapeutic drugs. […] Concentrations correspond to IC50 cell-specific concentration for all used drugs.

PARP = PARP down-regulation; type: cell-based
Description: As such, these compounds are useful as therapeutic agents.

breast cancer cell lines = assay: Peptide effect on proliferation (MTT), detachment and apoptosis (Hoechst, TUNEL) in breast cancer cell lines; type: cell-based, human; settings: 24 hours
Procedure: as §3

[9] = biological target: T4, FAK in focal adhesions of BT474 cells (Homo sapiens, UniProt Q05397); assay: Displacement of FAK from focal adhesions (dual colour staining, confocal microscopy); type: cell-based; settings: 24 hours of peptide treatment
T4 construct: specific displacement of FAK from the focal adhesions of the tumor cells; endogenous in cells; host or cells: tumor cells; BT474 named for the focal adhesion staining
Procedure: as §2
as §3, with “Control scrambled peptide-AV3S (white) was also used in all experiments. (FIG. 1.10, STEP 2A).” left out

T2 sequence (Q05397 whole entry): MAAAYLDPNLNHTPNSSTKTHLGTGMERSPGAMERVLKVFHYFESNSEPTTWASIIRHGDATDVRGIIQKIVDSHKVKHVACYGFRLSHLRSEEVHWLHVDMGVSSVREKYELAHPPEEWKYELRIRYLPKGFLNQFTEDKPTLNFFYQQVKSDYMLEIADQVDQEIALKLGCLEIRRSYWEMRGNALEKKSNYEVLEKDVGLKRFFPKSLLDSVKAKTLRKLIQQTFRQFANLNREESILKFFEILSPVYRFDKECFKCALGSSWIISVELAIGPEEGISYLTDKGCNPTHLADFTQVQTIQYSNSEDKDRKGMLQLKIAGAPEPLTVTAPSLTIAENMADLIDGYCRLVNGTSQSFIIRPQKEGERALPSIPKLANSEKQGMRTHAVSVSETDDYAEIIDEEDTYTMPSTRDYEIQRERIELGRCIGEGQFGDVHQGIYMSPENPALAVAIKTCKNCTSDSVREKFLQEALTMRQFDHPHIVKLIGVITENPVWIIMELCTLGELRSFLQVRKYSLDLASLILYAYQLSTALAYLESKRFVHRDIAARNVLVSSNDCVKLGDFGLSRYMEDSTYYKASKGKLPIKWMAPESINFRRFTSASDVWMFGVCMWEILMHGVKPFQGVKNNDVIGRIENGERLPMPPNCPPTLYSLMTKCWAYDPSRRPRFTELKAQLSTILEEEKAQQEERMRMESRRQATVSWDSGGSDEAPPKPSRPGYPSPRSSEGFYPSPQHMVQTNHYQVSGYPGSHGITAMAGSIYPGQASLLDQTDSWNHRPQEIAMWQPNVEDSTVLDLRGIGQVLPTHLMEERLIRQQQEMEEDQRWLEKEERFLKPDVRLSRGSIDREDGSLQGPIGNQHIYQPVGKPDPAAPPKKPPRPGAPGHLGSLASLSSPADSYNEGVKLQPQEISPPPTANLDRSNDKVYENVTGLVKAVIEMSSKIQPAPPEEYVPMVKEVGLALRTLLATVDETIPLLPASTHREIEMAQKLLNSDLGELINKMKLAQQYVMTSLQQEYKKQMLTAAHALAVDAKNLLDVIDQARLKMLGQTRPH
T3 sequence (Q05397 2-1052 limits assumed): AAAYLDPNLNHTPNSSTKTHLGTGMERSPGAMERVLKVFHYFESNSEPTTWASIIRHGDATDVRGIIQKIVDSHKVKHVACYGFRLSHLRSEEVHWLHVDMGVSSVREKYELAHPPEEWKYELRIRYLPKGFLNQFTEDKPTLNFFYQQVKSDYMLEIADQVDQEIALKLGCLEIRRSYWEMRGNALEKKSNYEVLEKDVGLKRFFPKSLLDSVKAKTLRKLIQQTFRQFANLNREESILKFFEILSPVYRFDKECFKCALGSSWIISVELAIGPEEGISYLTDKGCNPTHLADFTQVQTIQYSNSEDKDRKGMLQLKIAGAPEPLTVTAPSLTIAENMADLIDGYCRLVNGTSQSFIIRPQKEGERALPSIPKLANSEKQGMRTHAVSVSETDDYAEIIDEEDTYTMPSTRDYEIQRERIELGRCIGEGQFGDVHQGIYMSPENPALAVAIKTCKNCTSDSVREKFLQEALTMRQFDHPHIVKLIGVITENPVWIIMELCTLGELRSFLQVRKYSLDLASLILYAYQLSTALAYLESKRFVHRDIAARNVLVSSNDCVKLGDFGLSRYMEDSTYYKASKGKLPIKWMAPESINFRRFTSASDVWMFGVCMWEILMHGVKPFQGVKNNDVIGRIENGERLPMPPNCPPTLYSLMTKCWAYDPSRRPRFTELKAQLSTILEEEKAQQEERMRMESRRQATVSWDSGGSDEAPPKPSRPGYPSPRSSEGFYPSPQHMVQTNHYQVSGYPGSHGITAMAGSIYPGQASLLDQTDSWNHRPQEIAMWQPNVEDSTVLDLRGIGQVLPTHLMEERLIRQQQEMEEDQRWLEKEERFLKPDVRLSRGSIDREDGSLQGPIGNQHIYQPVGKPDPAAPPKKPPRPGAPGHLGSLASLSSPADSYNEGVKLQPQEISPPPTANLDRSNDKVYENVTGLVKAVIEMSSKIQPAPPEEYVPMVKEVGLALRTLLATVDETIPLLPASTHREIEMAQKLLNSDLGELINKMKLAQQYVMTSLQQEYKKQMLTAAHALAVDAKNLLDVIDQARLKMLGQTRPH
T4 sequence (Q05397 whole entry): as the sequence (Q05397 whole entry) above
T1 sequence (P35916 25-1363): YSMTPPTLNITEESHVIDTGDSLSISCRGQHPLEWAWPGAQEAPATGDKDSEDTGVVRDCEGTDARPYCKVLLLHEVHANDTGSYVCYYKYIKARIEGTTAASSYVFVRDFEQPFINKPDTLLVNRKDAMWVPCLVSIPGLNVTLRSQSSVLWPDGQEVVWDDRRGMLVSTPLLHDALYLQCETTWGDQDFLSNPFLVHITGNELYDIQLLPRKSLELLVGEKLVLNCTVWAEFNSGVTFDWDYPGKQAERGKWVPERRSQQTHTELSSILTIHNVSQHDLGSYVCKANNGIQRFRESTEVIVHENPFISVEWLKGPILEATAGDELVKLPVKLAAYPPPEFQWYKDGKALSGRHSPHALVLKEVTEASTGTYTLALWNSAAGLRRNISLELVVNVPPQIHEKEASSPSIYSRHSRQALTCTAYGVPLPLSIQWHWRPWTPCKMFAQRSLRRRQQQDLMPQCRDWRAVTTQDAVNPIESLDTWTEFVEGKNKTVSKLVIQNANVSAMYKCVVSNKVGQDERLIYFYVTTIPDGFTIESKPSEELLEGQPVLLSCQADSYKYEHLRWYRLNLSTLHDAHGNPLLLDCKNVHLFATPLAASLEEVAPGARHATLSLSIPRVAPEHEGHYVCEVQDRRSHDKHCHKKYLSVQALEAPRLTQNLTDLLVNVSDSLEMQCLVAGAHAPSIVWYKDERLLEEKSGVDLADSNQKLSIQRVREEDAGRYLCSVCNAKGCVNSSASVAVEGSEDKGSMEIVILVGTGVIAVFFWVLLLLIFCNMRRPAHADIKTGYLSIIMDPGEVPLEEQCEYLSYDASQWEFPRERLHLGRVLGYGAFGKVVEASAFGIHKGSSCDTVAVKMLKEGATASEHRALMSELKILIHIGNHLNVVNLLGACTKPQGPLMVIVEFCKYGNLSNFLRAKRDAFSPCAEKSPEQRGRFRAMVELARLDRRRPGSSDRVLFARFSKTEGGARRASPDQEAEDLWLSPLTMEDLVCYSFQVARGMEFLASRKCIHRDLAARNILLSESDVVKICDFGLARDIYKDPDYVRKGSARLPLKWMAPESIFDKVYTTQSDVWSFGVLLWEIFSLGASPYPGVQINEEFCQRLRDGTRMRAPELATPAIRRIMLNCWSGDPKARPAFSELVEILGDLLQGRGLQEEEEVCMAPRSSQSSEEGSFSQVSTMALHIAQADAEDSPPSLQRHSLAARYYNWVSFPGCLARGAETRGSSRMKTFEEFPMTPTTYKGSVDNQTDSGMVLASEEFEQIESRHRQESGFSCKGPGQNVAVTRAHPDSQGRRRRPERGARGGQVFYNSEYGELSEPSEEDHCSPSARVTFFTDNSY

Molecule: CN(C)CCOC(c1ccccc1)c1ccccc1 [Benadryl, reference compound]
- anticancer effect on tumor growth in vivo [1]: no any anticancer properties

Molecule: CN(C)CCN(Cc1ccc(Cl)cc1)c1ccccn1 [Compound C4, N′-[(4-chlorophenyl)methyl]-N,N-dimethyl-N′-pyridin-2-yl-ethane-1,2-diamine]
- viability of control clone [2]: resistant to this concentration of the drug
- cell cycle (cancer cells [3]): blockage at G1/S cell cycle transition
- apoptosis of cancer cells (cancer cells [3]; in vitro): apoptosis of cancer cells; also recorded: causes apoptosis in pancreatic and breast cancer cells in vitro
- cell proliferation [4]: delay in cell proliferation
- viability of cancer cells ([4]; in vitro): decreases viability of many different types of cancer cells
- VEGFR-3 phosphorylation (VEGFR-3): specifically dephosphorylates FAK and VEGFR-3
- dephosphorylation of VEGFR3 (VEGFR-3; treatment for 24 h with 10 mM compound): caused dephosphorylation of VEGFR3
- reduction of tumor growth in comparison with nontreated tumors ([1]; 60 mg/kg, daily intraperitoneal injections, nude mice): up to 75%
- tumor growth after treatment withdrawal ([1]; C4 combined with Gemcitabine, pancreatic tumor): prolonged cytostatic effect on pancreatic tumor growth after treatment withdrawal
- anticancer effect in combination with Gemcitabine ([1]; C4 combined with Gemcitabine, versus each drug separately): much stronger anticancer effect than each of the drugs separately
- tumor growth compared with doxorubicin ([1]; breast cancer): decreases tumor growth better than doxorubicin
- anticancer effect on tumor growth in vivo [1]: strong anticancer effect; also recorded: reduces tumor growth in vivo in mouse model of breast cancer and pancreatic cancer
- FAK phosphorylation (FAK): specifically dephosphorylates FAK and VEGFR-3
- FAK and VEGFR-3 interaction [5]: disrupts their interaction
- colocalization of FAK and VEGFR-3 in the cells [5]: decrease in their colocalization in the cells
- viability of VEGFR3 clone [6]: reproducible decrease in viability
- motility and invasiveness of cancer cells (cancer cells [7]): reduces motility and invasiveness of cancer cells
- effect of dual treatment with doxorubicin (cancer cells [8]; C4 combined with doxorubicin, IC50 cell-specific concentrations): At least additive effect is very pronounced
- cell viability in combination with chemotherapy (sensitization) (cancer cells [8]; in combination with Doxorubicin and Gemcitabine, in vitro): improved effect on decrease of cells viability; also recorded: sensitizes pancreatic cancer and breast cancer cells to chemotherapy treatment in vitro

Molecule: COC(=O)Nc1nc2ccc(C(=O)C3CC3)cc2[nH]1 [Compound D4, methyl N-[5-(cyclopropanecarbonyl)-3H-benzoimidazol-2-yl]carbamate]
- phosphorylation of Y397 (FAK): cause de-phosphorylation of Y397
- PARP level (PARP): causes PARP down-regulation

Molecule: Cc1cc(C)nc(Nc2nc3cc([N+](=O)[O-])ccc3[nH]2)n1 [Compound D5, (4,6-Dimethyl-pyrimidin-2-yl)-(5-nitro-1H-benzoimidazol-2-yl)-amine]
- phosphorylation of Y397 (FAK): cause de-phosphorylation of Y397

Molecule: COc1ccc(NC(=O)Nc2cc(Cl)ccc2OC)c(Cl)c1 [Compound D6, 1-(2-chloro-4-methoxy-phenyl)-3-(5-chloro-2-methoxy-phenyl) urea]
- phosphorylation of Y397 (FAK): cause de-phosphorylation of Y397

Molecule: WHWRPWTPCKMF (also: TAT penetration sequence coupled for cell tests) [peptide-AV3]
- cell detachment in breast cancer cell lines (breast cancer cell lines): caused cell detachment
- cell detachment in breast cancer cell lines (breast cancer cell lines; listed as Peptide-AV3): increased detachment
- apoptosis in breast cancer cell lines (breast cancer cell lines; Hoechst staining and TUNEL): apoptosis
- proliferation of breast cancer cell lines (breast cancer cell lines; MTT): decreased proliferation
- colocalization of FAK and VEGFR-3 in the cells [5]: affected co-localization of FAK and VEGFR-3; also recorded: affected colocalization of FAK and VEGFR-3
- displacement of FAK from the focal adhesions [9]: caused specific displacement of FAK from the focal adhesions
- displacement of FAK from the focal adhesions ([9]; listed as Peptide-AV3): causes specific displacement of FAK from the focal adhesions
